From patent US10947289B2, “Glyco-modified atrial natriuretic peptide” (priority 2013, dated 2021) come the findings set out here.

The experiment has as its target T1, human GC-A (Homo sapiens, UniProt P16066).
T1 construct: expressed in transfected cells; host or cells: CHO cells
T1 sequence (P16066 33-1061): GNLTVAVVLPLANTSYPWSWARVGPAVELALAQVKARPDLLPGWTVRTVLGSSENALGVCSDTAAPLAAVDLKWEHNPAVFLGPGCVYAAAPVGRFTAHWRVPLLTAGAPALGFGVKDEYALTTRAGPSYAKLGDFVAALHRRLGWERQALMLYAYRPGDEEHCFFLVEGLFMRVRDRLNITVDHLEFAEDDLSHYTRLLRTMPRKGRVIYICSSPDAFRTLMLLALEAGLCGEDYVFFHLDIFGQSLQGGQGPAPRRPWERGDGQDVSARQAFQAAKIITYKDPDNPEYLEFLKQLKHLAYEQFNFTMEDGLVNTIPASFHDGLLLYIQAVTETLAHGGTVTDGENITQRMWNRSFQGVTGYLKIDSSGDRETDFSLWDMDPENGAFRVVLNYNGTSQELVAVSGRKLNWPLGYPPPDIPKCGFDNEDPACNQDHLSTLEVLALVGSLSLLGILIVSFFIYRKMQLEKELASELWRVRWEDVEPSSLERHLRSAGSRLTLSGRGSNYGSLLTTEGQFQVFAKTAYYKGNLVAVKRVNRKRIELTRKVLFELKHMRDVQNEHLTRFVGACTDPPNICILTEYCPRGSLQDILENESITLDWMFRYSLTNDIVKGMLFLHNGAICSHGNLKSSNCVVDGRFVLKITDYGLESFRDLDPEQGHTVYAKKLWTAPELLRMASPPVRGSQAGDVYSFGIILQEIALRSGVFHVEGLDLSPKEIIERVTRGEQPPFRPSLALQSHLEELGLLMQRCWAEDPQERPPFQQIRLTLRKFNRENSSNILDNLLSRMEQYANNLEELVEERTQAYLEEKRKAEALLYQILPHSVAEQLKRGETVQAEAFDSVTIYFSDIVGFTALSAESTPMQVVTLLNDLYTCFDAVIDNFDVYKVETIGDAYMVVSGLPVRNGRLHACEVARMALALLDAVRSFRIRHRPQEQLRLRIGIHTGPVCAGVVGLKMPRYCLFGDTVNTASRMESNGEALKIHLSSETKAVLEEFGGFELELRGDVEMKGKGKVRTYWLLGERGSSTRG
The experiment can be described thus: cGMP elevating activity in CHO/human GC-A cells (Test Example 1). The experiment is classed as cell-based. On the procedure:
The cGMP elevating activity of each modified peptide prepared in Example 2 was measured by the following method:
CHO/human GC-A cells, which are CHO cells constitutively expressing human GC-A, were suspended at 2×10^5 cells/ml in α-MEM, 10% FBS, and 1% penicillin-streptomycin, inoculated at 20 μl/well (4×10^3 cells/well) onto a 384-well plate (Corning, 3826), and cultured overnight in a CO2 incubator. On the next day, the medium was removed from this plate, and then, 1.6 mM IBMX/KRB buffer was added thereto at 10 μl/well. The mixture was stirred on a plate shaker and then incubated at room temperature for 10 minutes. […] The mixture was stirred on a plate shaker and then incubated for 15 minutes in a CO2 incubator. Thereafter, a lysis buffer (50 mM phosphate buffer, pH 7.0, and 1% Triton X-100) was added thereto at 5 μl/well. The cells were lysed by stirring for 10 minutes on a plate shaker. Subsequently, the cGMP levels in the cell lysates were measured by use of a cGMP kit (manufactured by Cisbio Bioassays). Specifically, to a 384-well plate (Greiner, 784076), 5 μl/well of a diluent attached to the kit, 5 μl/well of the cell lysate, 5 μl/well of cGMP-d2, and 5 μl/well of anti cGMP-Cryptate were added. The mixture was stirred on a plate shaker and then incubated overnight at 4° C. in the dark, followed by the measurement of homogeneous time-resolved fluorescence using RubyStar (manufactured by BMG LABTECH JAPAN Ltd.). The activity value (T/C) of the test substance at each concentration was calculated when the activity value of a well supplemented with only a solvent was defined as 0 and the activity value of a well supplemented with 1 nM ANP was defined as 1.

Consider `CC[C@H](C)[C@@H]1NC(=O)[C@H](CCCNC(=N)N)NC(=O)[C@H](CC(=O)O)NC(=O)[C@H](CCSC)NC(=O)[C@H](CCCNC(=N)N)NC(=O)CNC(=O)CNC(=O)[C@H](Cc2ccccc2)NC(=O)[C@@H](NC(=O)[C@H](CO)NC(=O)[C@H](CO)NC(=O)[C@H](CCCNC(=N)N)NC(=O)[C@H](CCCNC(=N)N)NC(=O)[C@H](CC(C)C)NC(=O)[C@H](CO)NC(=O)CCOCCOCCOCCOCCNC(=O)CO[C@@H]2O[C@H](CO)[C@@H](O[C@@H]3O[C@H](CO)[C@@H](O[C@@H]4O[C@H](CO[C@H]5O[C@H](CO)[C@@H](O)[C@H](O)[C@@H]5O[C@@H]5O[C@H](CO)[C@@H](O[C@@H]6O[C@H](CO[C@]7(C(=O)O)C[C@H](O)[C@@H](NC(C)=O)[C@H]([C@H](O)[C@H](O)CO)O7)[C@H](O)[C@H](O)[C@H]6O)[C@H](O)[C@H]5NC(C)=O)[C@@H](O)[C@H](O[C@H]5O[C@H](CO)[C@@H](O)[C@H](O)[C@@H]5O[C@@H]5O[C@H](CO)[C@@H](O[C@@H]6O[C@H](CO[C@]7(C(=O)O)C[C@H](O)[C@@H](NC(C)=O)[C@H]([C@H](O)[C@H](O)CO)O7)[C@H](O)[C@H](O)[C@H]6O)[C@H](O)[C@H]5NC(C)=O)[C@@H]4O)[C@H](O)[C@H]3NC(C)=O)[C@H](O)[C@H]2NC(C)=O)CSSC[C@@H](C(=O)N[C@@H](CC(N)=O)C(=O)N[C@@H](CO)C(=O)N[C@@H](Cc2ccccc2)C(=O)N[C@@H](CCCNC(=N)N)C(=O)N[C@@H](Cc2ccc(O)cc2)C(=O)NCCOCCOCCOCCOCCC(=O)NCCO[C@@H]2O[C@H](CO)[C@@H](O[C@@H]3O[C@H](CO)[C@@H](O[C@@H]4O[C@H](CO[C@H]5O[C@H](CO)[C@@H](O)[C@H](O)[C@@H]5O[C@@H]5O[C@H](CO)[C@@H](O[C@@H]6O[C@H](CO[C@]7(C(=O)O)C[C@H](O)[C@@H](NC(C)=O)[C@H]([C@H](O)[C@H](O)CO)O7)[C@H](O)[C@H](O)[C@H]6O)[C@H](O)[C@H]5NC(C)=O)[C@@H](O)[C@H](O[C@H]5O[C@H](CO)[C@@H](O)[C@H](O)[C@@H]5O[C@@H]5O[C@H](CO)[C@@H](O[C@@H]6O[C@H](CO[C@]7(C(=O)O)C[C@H](O)[C@@H](NC(C)=O)[C@H]([C@H](O)[C@H](O)CO)O7)[C@H](O)[C@H](O)[C@H]6O)[C@H](O)[C@H]5NC(C)=O)[C@@H]4O)[C@H](O)[C@H]3NC(C)=O)[C@H](O)[C@H]2NC(C)=O)NC(=O)CNC(=O)[C@H](CC(C)C)NC(=O)CNC(=O)[C@H](CO)NC(=O)[C@H](CCC(N)=O)NC(=O)[C@H](C)NC(=O)CNC1=O` [Compound 2-24, SG-PEG(3)-hANP(1-28)-PEG(3)-SG], for which the EC50 came out at 0.54 nM. The figure for `CC[C@H](C)[C@@H]1NC(=O)[C@H](CCCNC(=N)N)NC(=O)[C@H](CC(=O)O)NC(=O)[C@H](CCSC)NC(=O)[C@H](CCCNC(=N)N)NC(=O)CNC(=O)CNC(=O)[C@H](Cc2ccccc2)NC(=O)[C@@H](NC(=O)[C@H](CO)NC(=O)[C@H](CO)NC(=O)[C@H](CCCNC(=N)N)NC(=O)[C@H](CCCNC(=N)N)NC(=O)[C@H](CC(C)C)NC(=O)[C@H](CO)NC(=O)CCOCCOCCOCCOCCOCCOCCOCCOCCOCCOCCOCCOCCNC(=O)CCOCCOCCOCCOCCOCCOCCOCCOCCOCCOCCOCCOCCNC(=O)[C@H](CC(=O)N[C@@H]2O[C@H](CO)[C@@H](O[C@@H]3O[C@H](CO)[C@@H](O[C@@H]4O[C@H](CO[C@H]5O[C@H](CO)[C@@H](O)[C@H](O)[C@@H]5O[C@@H]5O[C@H](CO)[C@@H](O[C@@H]6O[C@H](CO[C@]7(C(=O)O)C[C@H](O)[C@@H](NC(C)=O)[C@H]([C@H](O)[C@H](O)CO)O7)[C@H](O)[C@H](O)[C@H]6O)[C@H](O)[C@H]5NC(C)=O)[C@@H](O)[C@H](O[C@H]5O[C@H](CO)[C@@H](O)[C@H](O)[C@@H]5O[C@@H]5O[C@H](CO)[C@@H](O[C@@H]6O[C@H](CO[C@]7(C(=O)O)C[C@H](O)[C@@H](NC(C)=O)[C@H]([C@H](O)[C@H](O)CO)O7)[C@H](O)[C@H](O)[C@H]6O)[C@H](O)[C@H]5NC(C)=O)[C@@H]4O)[C@H](O)[C@H]3NC(C)=O)[C@H](O)[C@H]2NC(C)=O)NC(=O)CO[C@@H]2O[C@H](CO)[C@@H](O[C@@H]3O[C@H](CO)[C@@H](O[C@@H]4O[C@H](CO[C@H]5O[C@H](CO)[C@@H](O)[C@H](O)[C@@H]5O[C@@H]5O[C@H](CO)[C@@H](O[C@@H]6O[C@H](CO[C@]7(C(=O)O)C[C@H](O)[C@@H](NC(C)=O)[C@H]([C@H](O)[C@H](O)CO)O7)[C@H](O)[C@H](O)[C@H]6O)[C@H](O)[C@H]5NC(C)=O)[C@@H](O)[C@H](O[C@H]5O[C@H](CO)[C@@H](O)[C@H](O)[C@@H]5O[C@@H]5O[C@H](CO)[C@@H](O[C@@H]6O[C@H](CO[C@]7(C(=O)O)C[C@H](O)[C@@H](NC(C)=O)[C@H]([C@H](O)[C@H](O)CO)O7)[C@H](O)[C@H](O)[C@H]6O)[C@H](O)[C@H]5NC(C)=O)[C@@H]4O)[C@H](O)[C@H]3NC(C)=O)[C@H](O)[C@H]2NC(C)=O)CSSC[C@@H](C(=O)N[C@@H](CC(N)=O)C(=O)N[C@@H](CO)C(=O)N[C@@H](Cc2ccccc2)C(=O)N[C@@H](CCCNC(=N)N)C(=O)N[C@@H](Cc2ccc(O)cc2)C(=O)O)NC(=O)CNC(=O)[C@H](CC(C)C)NC(=O)CNC(=O)[C@H](CO)NC(=O)[C@H](CCC(N)=O)NC(=O)[C@H](C)NC(=O)CNC1=O` [Compound 2-28, SG-(SG-)Asn-PEG(11)-PEG(11)-hANP(1-28)] is 0.31 nM.

By EC50 is commonly meant the midpoint of the concentration-response curve.
